Reference: patent US10294248B2, “Beta-lactamase inhibitors” (VenatoRx Pharmaceuticals, Inc., priority 2013, dated 2019)

How the values were obtained:
[1] = molecular target: T1, SHV-5 β-lactamase (Class A ESBL) (Klebsiella pneumoniae, UniProt P0A3M1); test: β-Lactamase inhibition, SHV-5; type: biochemical
T1 construct: made in house; host or cells: E. coli BL21(DE3)
Outline: (§1)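 Native untagged β-lactamases were expressed in E. coli BL21(DE3), then purified by cation exchange and gel filtration. Enzyme was preincubated with inhibitor for 15 min at 37 °C before substrate was added. Imipenem (A300) served KPC-2 and cefotaxime (A260) served SHV-5. IC50 was taken from initial hydrolysis rates relative to no-inhibitor controls.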

[2] = molecular target: T2, KPC-2 β-lactamase (Class A carbapenemase) (Klebsiella pneumoniae, UniProt Q9F663); test: β-Lactamase inhibition, KPC-2; type: biochemical; conditions: imipenem substrate, 300 nm; 15 min preincubation at 37° C., PBS pH 7.4
T2 construct: made in house; host or cells: E. coli BL21(DE3)
T2 sequence (Q9F663 25-293, looked up): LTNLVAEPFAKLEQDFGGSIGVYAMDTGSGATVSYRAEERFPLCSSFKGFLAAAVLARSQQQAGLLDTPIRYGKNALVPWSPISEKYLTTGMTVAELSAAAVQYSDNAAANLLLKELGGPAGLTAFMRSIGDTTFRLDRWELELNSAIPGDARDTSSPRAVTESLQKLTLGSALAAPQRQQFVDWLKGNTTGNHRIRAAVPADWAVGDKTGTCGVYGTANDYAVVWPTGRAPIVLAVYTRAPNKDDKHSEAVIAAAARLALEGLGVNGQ
Outline: as §1

[3] = molecular target: T3, VIM-2 metallo-β-lactamase (Class B) (Pseudomonas aeruginosa, UniProt Q9K2N0); test: β-Lactamase inhibition, VIM-2; type: biochemical; conditions: nitrocefin 100 μM, 486 nm; 15 min preincubation at 37° C., PBS pH 7.4
T3 construct: made in house; host or cells: E. coli BL21(DE3)
Outline: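 IC50 reflects the inhibitor concentration cutting the initial nitrocefin hydrolysis rate by half, compared with control wells lacking inhibitor. Substrate was used at 100 μM final after a 15 min, 37 °C enzyme–inhibitor preincubation.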

[4] = molecular target: T4, p99 AmpC β-lactamase (Class C) (Enterobacter cloacae, UniProt P05364); test: β-Lactamase inhibition, p99 AmpC; type: biochemical
T4 construct: made in house; host or cells: E. coli BL21(DE3)
T4 sequence (P05364 21-381): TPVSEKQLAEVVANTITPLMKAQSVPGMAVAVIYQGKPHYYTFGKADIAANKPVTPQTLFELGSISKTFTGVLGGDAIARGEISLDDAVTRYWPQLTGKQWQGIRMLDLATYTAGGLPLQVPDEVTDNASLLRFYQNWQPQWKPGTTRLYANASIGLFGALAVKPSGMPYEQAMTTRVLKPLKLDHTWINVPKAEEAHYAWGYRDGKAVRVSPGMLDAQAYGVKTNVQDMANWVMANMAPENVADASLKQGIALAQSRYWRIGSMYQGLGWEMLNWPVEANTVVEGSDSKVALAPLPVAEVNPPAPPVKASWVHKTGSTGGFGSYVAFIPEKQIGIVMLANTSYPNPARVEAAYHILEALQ

[5] = molecular target: T5, OXA-1 β-lactamase (Class D oxacillinase) (Escherichia coli, UniProt P13661); test: β-Lactamase inhibition, OXA-1; type: biochemical; conditions: nitrocefin 100 μM, 486 nm; 15 min preincubation at 37° C., PBS pH 7.4
T5 construct: made in house; host or cells: E. coli BL21(DE3)
T5 sequence (P13661 26-276): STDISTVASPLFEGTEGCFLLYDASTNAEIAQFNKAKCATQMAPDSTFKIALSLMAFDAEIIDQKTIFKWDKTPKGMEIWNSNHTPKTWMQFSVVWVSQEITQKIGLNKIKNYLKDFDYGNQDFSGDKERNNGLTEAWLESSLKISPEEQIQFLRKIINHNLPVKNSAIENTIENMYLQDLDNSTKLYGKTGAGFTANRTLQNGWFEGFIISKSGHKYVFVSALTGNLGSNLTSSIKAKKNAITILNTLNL
Outline: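 Untagged enzyme from E. coli BL21(DE3), purified by Capto S then Superdex 75; 15 min 37 °C preincubation with inhibitor; KPC-2 read with imipenem at 300 nm, SHV-5 with cefotaxime at 260 nm, OXA-1 with nitrocefin 100 μM final at 486 nm; 10 min kinetic read; IC50 vs uninhibited wells.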

[6] = test system: E. coli ESBL4 expressing CTX-M-15; test: Broth microdilution MIC, E. coli ESBL4 CTX-M-15; type: cell-based; conditions: fixed 4 μg/mL ceftazidime; CAMHB, 16-20 hours at 37° C.
Outline: (§2)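 Growth inhibition by test compound in presence of a fixed 4 μg/ml β-lactam; CLSI microdilution in CAMHB, visual endpoint after overnight 37° C incubation.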

[7] = test system: E. cloacae 144200 expressing Class C P99 AmpC; test: Broth microdilution MIC, E. cloacae 144200 p99 AmpC; type: cell-based; conditions: fixed 4 μg/mL ceftazidime; CAMHB, 16-20 hours at 37° C.
Outline: as §2

[8] = test system: K. pneumoniae 156319 expressing KPC-3; test: Broth microdilution MIC, K. pneumoniae 156319 KPC-3; type: cell-based; conditions: fixed 4 μg/mL meropenem; CAMHB, 16-20 hours at 37° C.
Outline: as §2

[9] = test system: P. aeruginosa Ps296 expressing VIM-2; test: Broth microdilution MIC, P. aeruginosa Ps296 VIM-2; type: cell-based; conditions: fixed 4 μg/mL meropenem; CAMHB, 16-20 hours at 37° C.
Outline: as §2

[10] = test system: K. pneumoniae A-1797 expressing KPC-2 and VIM-4; test: Broth microdilution MIC, K. pneumoniae A-1797 KPC-2/VIM-4; type: cell-based; conditions: fixed 4 μg/mL meropenem; CAMHB, 16-20 hours at 37° C.
Outline: as §2

[11] = test system: S. aureus MSSA-7 producing penicillinase PC-1; test: Broth microdilution MIC, S. aureus MSSA-7 PC-1; type: cell-based; conditions: fixed 4 μg/mL piperacillin; CAMHB, 16-20 hours at 37° C.
Outline: as §2

T1 sequence (P0A3M1 22-286): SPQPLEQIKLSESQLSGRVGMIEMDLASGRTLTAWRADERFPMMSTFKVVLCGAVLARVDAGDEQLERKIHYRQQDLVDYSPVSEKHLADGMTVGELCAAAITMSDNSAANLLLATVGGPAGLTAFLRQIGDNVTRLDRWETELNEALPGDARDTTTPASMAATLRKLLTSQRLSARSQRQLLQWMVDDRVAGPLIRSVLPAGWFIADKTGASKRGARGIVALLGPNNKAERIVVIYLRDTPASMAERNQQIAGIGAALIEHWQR

Row | SMILES | IC50 [1] [nM] | IC50 [2] [nM] | IC50 [3] [nM] | IC50 [4] [nM] | IC50 [5] [nM] | MIC of example compound in presence of fixed β-lactam: Fixed CAZ, E. coli ESBL4 CTX-M-15 [6] | MIC of example compound in presence of fixed β-lactam: Fixed CAZ, E. cl. 144200 p99 AmpC [7] | MIC of example compound in presence of fixed β-lactam: Fixed Mero, K. P. 156319 KPC-3 [8] | MIC of example compound in presence of fixed β-lactam: Fixed Mero, P. aerug. Ps296 VIM-2 [9] | MIC of example compound in presence of fixed β-lactam: Fixed Mero, K. P. A-1797 KPC-2 VIM-4 [10] | MIC of example compound in presence of fixed β-lactam: Fixed Pip, S. aureus MSSA-7 PC-1 [11]
1 | N=C(N)NCCN1CCC(CCC(=O)N[C@H]2Cc3cccc(C(=O)O)c3OB2O)CC1 [Example 34, 3-{3-[1-(2-Guanidino-ethyl)-piperidin-4-yl]-propionylamino}-2-hydroxy-3,4-dihydro-2H-benzo[e][1,2]oxaborinine-8-carboxylic acid] | < 100 | 100 to 1000 | 10000 to 100000 | 100 to 1000 | 100 to 1000 | C (the MIC in the presence of <4 μg/mL of a β-lactamase inhibitor) | C (the MIC in the presence of <4 μg/mL of a β-lactamase inhibitor) | A (an MIC of the fixed β-lactam antibiotic in the presence of >32 μg/mL of a β-lactamase inhibitor) | A (an MIC of the fixed β-lactam antibiotic in the presence of >32 μg/mL of a β-lactamase inhibitor) | A (an MIC of the fixed β-lactam antibiotic in the presence of >32 μg/mL of a β-lactamase inhibitor) | C (the MIC in the presence of <4 μg/mL of a β-lactamase inhibitor)
2 | CNC1CCN(CC(=O)N[C@H]2Cc3cccc(C(=O)O)c3OB2O)CC1O (stereo partly drawn) [Example 20, 2-Hydroxy-3-[2-(3-hydroxy-4-methylamino-piperidin-1-yl)-acetylamino]-3,4-dihydro-2H-benzo[e][1,2]oxaborinine-8-carboxylic acid] | 100 to 1000 | 100 to 1000 | 1000 to 10000 | < 100 | < 100 | C (the MIC in the presence of <4 μg/mL of a β-lactamase inhibitor) | C (the MIC in the presence of <4 μg/mL of a β-lactamase inhibitor) | C (the MIC in the presence of <4 μg/mL of a β-lactamase inhibitor) | B (the MIC in the presence of between 8 and 32 μg/mL of a β-lactamase inhibitor) | A (an MIC of the fixed β-lactam antibiotic in the presence of >32 μg/mL of a β-lactamase inhibitor) | C (the MIC in the presence of <4 μg/mL of a β-lactamase inhibitor)
3 | N[C@H]1CCN(CC(=O)N[C@H]2Cc3cccc(C(=O)O)c3OB2O)C1 [Example 7, 3-[2-(S-3-Amino-pyrrolidin-1-yl)-acetylamino]-2-hydroxy-3,4-dihydro-2H-benzo[e][1,2]oxaborinine-8-carboxylic acid] | < 100 | 100 to 1000 | 1000 to 10000 | < 100 | 100 to 1000 | C (the MIC in the presence of <4 μg/mL of a β-lactamase inhibitor) | C (the MIC in the presence of <4 μg/mL of a β-lactamase inhibitor) | C (the MIC in the presence of <4 μg/mL of a β-lactamase inhibitor) | A (an MIC of the fixed β-lactam antibiotic in the presence of >32 μg/mL of a β-lactamase inhibitor) | A (an MIC of the fixed β-lactam antibiotic in the presence of >32 μg/mL of a β-lactamase inhibitor) | C (the MIC in the presence of <4 μg/mL of a β-lactamase inhibitor)
4 | NC1CCN(CC(=O)N[C@H]2Cc3cccc(C(=O)O)c3OB2O)CC1N (stereo partly drawn) [Example 28, 3-[2-(3,4-Diamino-piperidin-1-yl)-acetylamino]-2-hydroxy-3,4-dihydro-2H-benzo[e][1,2]oxaborinine-8-carboxylic acid] | 10000 to 100000 | < 100 | 10000 to 100000 | < 100 | < 100 | C (the MIC in the presence of <4 μg/mL of a β-lactamase inhibitor) | C (the MIC in the presence of <4 μg/mL of a β-lactamase inhibitor) | C (the MIC in the presence of <4 μg/mL of a β-lactamase inhibitor) | C (the MIC in the presence of <4 μg/mL of a β-lactamase inhibitor) | B (the MIC in the presence of between 8 and 32 μg/mL of a β-lactamase inhibitor) | C (the MIC in the presence of <4 μg/mL of a β-lactamase inhibitor)
5 | O=C(O)CN1CCN(CC(=O)N[C@H]2Cc3cccc(C(=O)O)c3OB2O)CC1 [Example 25, 3-[2-(4-Carboxymethyl-piperazin-1-yl)-acetylamino]-2-hydroxy-3,4-dihydro-2H-benzo[e][1,2]oxaborinine-8-carboxylic acid] | < 100 | 100 to 1000 | 10000 to 100000 | < 100 | < 100 | C (the MIC in the presence of <4 μg/mL of a β-lactamase inhibitor) | C (the MIC in the presence of <4 μg/mL of a β-lactamase inhibitor) | B (the MIC in the presence of between 8 and 32 μg/mL of a β-lactamase inhibitor) | B (the MIC in the presence of between 8 and 32 μg/mL of a β-lactamase inhibitor) | B (the MIC in the presence of between 8 and 32 μg/mL of a β-lactamase inhibitor) | C (the MIC in the presence of <4 μg/mL of a β-lactamase inhibitor)
6 | N[C@@H]1CCCN(CC(=O)N[C@H]2Cc3cccc(C(=O)O)c3OB2O)C1 [Example 10, 3-[2-(R-3-Amino-piperidin-1-yl)-acetylamino]-2-hydroxy-3,4-dihydro-2H-benzo[e][1,2]oxaborinine-8-carboxylic acid] | < 100 | 100 to 1000 | 1000 to 10000 | < 100 | 100 to 1000 | C (the MIC in the presence of <4 μg/mL of a β-lactamase inhibitor) | C (the MIC in the presence of <4 μg/mL of a β-lactamase inhibitor) | C (the MIC in the presence of <4 μg/mL of a β-lactamase inhibitor) | A (an MIC of the fixed β-lactam antibiotic in the presence of >32 μg/mL of a β-lactamase inhibitor) | C (the MIC in the presence of <4 μg/mL of a β-lactamase inhibitor) | B (the MIC in the presence of between 8 and 32 μg/mL of a β-lactamase inhibitor)
